From patent publication US12060347B2 (BRISTOL-MYERS SQUIBB COMPANY, priority 2016, dated 2024)

Each molecule was assayed against T1, human PAR4 (Homo sapiens, UniProt Q96RI0) (assay: PAR4 FLIPR assay: antagonism of agonist-peptide-induced calcium mobilization in PAR4-expressing HEK293 cells). Conditions: H-Ala-Phe(4-F)-[…]NH2-induced intracellular calcium mobilization, 11-point curves.
T1 construct: expressed in transfected cells; host or cells: HEK293 PAR4 Clone 1.2A (BMS Arctic ID 383940)
T1 sequence (Q96RI0 18-385): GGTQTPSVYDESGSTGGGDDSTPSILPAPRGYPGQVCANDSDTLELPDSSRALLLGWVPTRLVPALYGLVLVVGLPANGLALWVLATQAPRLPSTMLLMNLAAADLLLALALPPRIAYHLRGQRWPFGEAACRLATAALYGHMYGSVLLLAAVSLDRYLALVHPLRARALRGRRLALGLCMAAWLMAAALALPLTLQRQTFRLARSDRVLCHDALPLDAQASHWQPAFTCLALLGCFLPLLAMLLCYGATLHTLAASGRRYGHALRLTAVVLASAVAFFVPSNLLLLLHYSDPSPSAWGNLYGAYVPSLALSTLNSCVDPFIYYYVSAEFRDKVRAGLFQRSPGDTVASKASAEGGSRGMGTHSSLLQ
Assay type: cell-based

IC50 [nM]	Structure (SMILES)
2.1	Cc1cc(-c2nc3cc(F)c(O[C@@H](C)[C@@H](C)OC(=O)Nc4cnc(C)nc4)cc3s2)c2ncc(OC(F)F)cc2c1 [Example 659, (2R,3S)-3((2-(3-(difluoromethoxy)-6-methylquinolin-8-yl)-5-fluorobenzo[d]thiazol-6-yl)oxy)butan-2-yl (2-methylpyrimidin-5-yl)carbamate]
2	CCOc1cnc2c(-c3nc4cc(F)c(O[C@@H](C)[C@@H](C)OC(=O)Nc5cnc(C)nc5)cc4s3)cc(C)cc2c1 [Example 660, (2R,3S)-3-((2-(3-ethoxy-6-methylquinolin-8-yl)-5-fluorobenzo[d]thiazol-6-yl)oxy)butan-2-yl (2-methylpyrimidin-5-yl)carbamate]
55	CCOc1cnc2c(-c3cc4ccccc4o3)cc(C)cc2n1 [Example 661, 5-(benzofuran-2-yl)-2-ethoxy-7-methylquinoxaline]
7	COc1cc(C(O)C2CCOCC2)c2nc(-c3cc(C)cc4nc(OC)cnc34)sc2c1 (stereo not drawn) [Example 663, (6-methoxy-2-(2-methoxy-7-methylquinoxalin-5-yl)benzo[d]thiazol-4-yl)(tetrahydro-2H-pyran-4-yl)methanol]
1.7	COc1cc(C(O)C2(c3ccccc3)CCC2)c2nc(-c3cc(C)cc4nc(OC)cnc34)sc2c1 (stereo not drawn) [Example 665, (6-methoxy-2-(2-methoxy-7-methylquinoxalin-5-yl)benzo[d]thiazol-4-yl)(1-phenylcyclobutyl)methanol]
1.1	COc1cc(C(O)C2(OC)CCC2)c2nc(-c3cc(C)cc4nc(OC)cnc34)sc2c1 (stereo not drawn) [Example 666, (6-methoxy-2-(2-methoxy-7-methylquinoxalin-5-yl)benzo[d]thiazol-4-yl)(1-methoxycyclobutyl)methanol]
5.6	COc1cc(C(O)C2(C(F)(F)F)CC2)c2nc(-c3cc(C)cc4nc(OC)cnc34)sc2c1 (stereo not drawn) [Example 667, (6-methoxy-2-(2-methoxy-7-methylquinoxalin-5-yl)benzo[d]thiazol-4-yl)(1-(trifluoromethyl)cyclopropyl)methanol]
7.3	COc1cc(C(O)C2(c3ccccc3)CC2)c2nc(-c3cc(C)cc4nc(OC)cnc34)sc2c1 (stereo not drawn) [Example 668, (6-methoxy-2-(2-methoxy-7-methylquinoxalin-5-yl)benzo[d]thiazol-4-yl)(1-phenylcyclopropyl)methanol]
2.3	COc1cc(C(O)C2(C(F)(F)F)CCC2)c2nc(-c3cc(C)cc4nc(OC)cnc34)sc2c1 (stereo not drawn) [Example 669]
1.9	COc1cc(C(O)C2(C)CC2)c2nc(-c3cc(C)cc4nc(OC)cnc34)sc2c1 (stereo not drawn) [Example 671, (6-methoxy-2-(2-methoxy-7-methylquinoxalin-5-yl)benzo[d]thiazol-4-yl)(1-methylcyclopropyl)methanol]
1.9	COc1cc(C(O)C2(C)CCCCC2)c2nc(-c3cc(C)cc4nc(OC)cnc34)sc2c1 (stereo not drawn) [Example 672, (6-methoxy-2-(2-methoxy-7-methylquinoxalin-5-yl)benzo[d]thiazol-4-yl)(1-methylcyclohexyl)methanol]
39	COc1cc(C(O)c2nccs2)c2nc(-c3cc(C)cc4nc(OC)cnc34)sc2c1 (stereo not drawn) [Example 673, (6-methoxy-2-(2-methoxy-7-methylquinoxalin-5-yl)benzo[d]thiazol-4-yl)(thiazol-2-yl)methanol]
20	COc1cc(C(O)C2(C)CCOCC2)c2nc(-c3cc(C)cc4nc(OC)cnc34)sc2c1 (stereo not drawn) [Example 674, (6-methoxy-2-(2-methoxy-7-methylquinoxalin-5-yl)benzo[d]thiazol-4-yl)(4-methyltetrahydro-2H-pyran-4-yl)methanol]
10	COc1cc(F)cc(C(O)c2cc(OC)cc3sc(-c4cc(C)cc5nc(OC)cnc45)nc23)c1 (stereo not drawn) [Example 675, (3-fluoro-5-methoxyphenyl)(6-methoxy-2-(2-methoxy-7-methylquinoxalin-5-yl)benzo[d]thiazol-4-yl)methanol]
3.2	COc1cc(C(O)C2(C)CCCCC2)c2nc(-c3cc(C)cc4nc(OC)cnc34)sc2c1 (stereo not drawn) [Example 676, (6-methoxy-2-(2-methoxy-7-methylquinoxalin-5-yl)benzo[d]thiazol-4-yl)(1-methylcyclohexyl)methanol]
3.8	COc1cc(C(C)O)c2nc(-c3cc(C)cc4nc(OC)cnc34)sc2c1 (stereo not drawn) [Example 677, 1-(6-methoxy-2-(2-methoxy-7-methylquinoxalin-5-yl)benzo[d]thiazol-4-yl)ethan-1-ol]
1	COc1cnc2c(-c3nc4cc(F)c(OC[C@@H](C)OC(=O)Nc5cnc(C)nc5)nc4s3)cc(C)cc2n1 [Example 678, (R)-1-((6-fluoro-2-(2-methoxy-7-methylquinoxalin-5-yl)thiazolo[5,4-b]pyridin-5-yl)oxy)propan-2-yl (2-methylpyrimidin-5-yl)carbamate]
2.5	COc1cnc2c(-c3nc4cc(F)c(OC[C@@H](C)OC(=O)Nc5cnc(OC)nc5)nc4s3)cc(C)cc2n1 [Example 679, (R)-1-((6-fluoro-2-(2-methoxy-7-methylquinoxalin-5-yl)thiazolo[5,4-b]pyridin-5-yl)oxy) propan-2-yl (2-methoxypyrimidin-5-yl)carbamate]
0.8	COc1cnc2c(-c3nc4cc(F)c(OC[C@@H](C)OC(=O)Nc5ccncc5)nc4s3)cc(C)cc2n1 [Example 680, (R)-1-((6-fluoro-2-(2-methoxy-7-methylquinoxalin-5-yl)thiazolo[5,4-b]pyridin-5-yl)oxy) propan-2-yl pyridin-4-ylcarbamate]
0.4	COc1cnc2c(-c3nc4cc(F)c(OC[C@@H](C)OC(=O)Nc5ccc(C)nc5)nc4s3)cc(C)cc2n1 [Example 681, (R)-1-((6-fluoro-2-(2-methoxy-7-methylquinoxalin-5-yl)thiazolo[5,4-b]pyridin-5-yl)oxy) propan-2-yl (6-methylpyridin-3-yl)carbamate]
0.9	COc1cnc2c(-c3nc4cc(F)c(OC[C@@H](C)OC(=O)Nc5cncc(F)c5)nc4s3)cc(C)cc2n1 [Example 682, (R)-1-((6-fluoro-2-(2-methoxy-7-methylquinoxalin-5-yl)thiazolo[5,4-b]pyridin-5-yl)oxy) propan-2-yl (5-fluoropyridin-3-yl)carbamate]
0.7	COc1cnc2c(-c3nc4cc(F)c(OC[C@@H](C)OC(=O)Nc5ccc6[nH]c(=O)oc6c5)nc4s3)cc(C)cc2n1 [Example 683, (R)-1-((6-fluoro-2-(2-methoxy-7-methylquinoxalin-5-yl)thiazolo[5,4-b]pyridin-5-yl)oxy) propan-2-yl (2-oxo-2,3-dihydrobenzo[d]oxazol-6-yl)carbamate]
0.7	COc1cnc2c(-c3nc4cc(F)c(OC[C@@H](C)OC(=O)Nc5cccnc5)nc4s3)cc(C)cc2n1 [Example 684, (R)-1-((6-fluoro-2-(2-methoxy-7-methylquinoxalin-5-yl)thiazolo[5,4-b]pyridin-5-yl)oxy) propan-2-yl pyridin-3-ylcarbamate]

Structure (SMILES)	IC50 [nM]
COc1ccc(OC(=O)NCCOc2cc(C)c3nc(-c4cc(C)cc5nc(OC)cnc45)sc3n2)cc1 [Example 662, 4-methoxyphenyl (2-((2-(2-methoxy-7-methylquinoxalin-5-yl)-7-methylthiazolo[5,4-b]pyridin-5-yl)oxy)ethyl)carbamate]	77
